Tested on: HIV-1 clinical isolates grouped by RT mutations
Experiment: Pairwise comparison of NNRTI fold change between groups of clinical isolates (Student's T-test, Bonferroni's Multiple Comparison Test)
Assay type: cell-based
Method: This example provides methods and compositions for identifying mutations that correlate with hypersusceptibility to a NNRTI. Resistance test vectors were constructed and used as described in Example 1. Resistance test vectors derived from patient samples or clones derived from the resistance test vector pools were tested in a resistance assay to determine accurately and quantitatively the relative EFV, DLV, or NVP resistance or susceptibility compared to the median observed resistance or susceptibility.
To identify mutations associated with NNRTI hypersusceptibility, the following analysis was performed. […] The TAMs referenced in. Table 1 include M41L, D67N, K70R, L210W, T215FY, and K219X, while the NAMs referenced include K65R, T69X, L74IV, V75X, and M184IV. Isolates without NRTI, NNRTI or PI mutations served as a wild type (WT) reference group. Further comparison groups comprised isolates with three TAMS including T215Y (+/−H208Y, +/−V118I) or three TAMS including K70R. Scatter plots and statistical tests (See FIGS. 1-6) were generated using Prism 4.0 (GraphPad, San Diego, Calif.)
In addition, a pairwise comparison between two sets of data was conducted using Bonferroni's Multiple Comparison Test using the Prism 4.0 software. The results of the comparison are presented in Tables 2, 3, and 4, appended to the end of this document. Samples with K65R, K65R+M184V, or 2 TAMs in combination with T215Y had over 40% with EFV FC<0.4.

Structure (SMILES): O=C1Nc2ccc(Cl)cc2[C@@](C#CC2CC2)(C(F)(F)F)O1 [EFV, efavirenz]
- Mean Diff. of fold change (1 NAM vs 2 NAMs): 0.1722
- Mean Diff. of fold change (1 NAM vs 3 NAMs): 0.1256
- Mean Diff. of fold change (1 NAM vs K65R): 0.1565
- Mean Diff. of fold change (1 NAM vs K65R + M184V): 0.2694
- Mean Diff. of fold change (1 NAM vs K70R_3_TAMs): −0.02778
- Mean Diff. of fold change (1 NAM vs M184V): 0.001657
- Mean Diff. of fold change (1 NAM vs T69): −0.09534
- Mean Diff. of fold change (1 NAM vs T215Y_3_TAMs): 0.2651
- Mean Diff. of fold change (1 NAM vs T215Y_3_TAMs_118): 0.3291
- Mean Diff. of fold change (1 NAM vs T215Y_3_TAMs_208): 0.3294
- Mean Diff. of fold change (1 NAM vs T215Y_3_TAMs_no118): 0.2225
- Mean Diff. of fold change (1 NAM vs T215Y_3_TAMs_no208): 0.2549
- Mean Diff. of fold change (2 NAMs vs 3 NAMs): −0.04654
- Mean Diff. of fold change (2 NAMs vs K65R): −0.01562
- Mean Diff. of fold change (2 NAMs vs K65R + M184V): 0.09723
- Mean Diff. of fold change (2 NAMs vs K70R_3_TAMs): −0.1999
- Mean Diff. of fold change (2 NAMs vs M184V): −0.1705
- Mean Diff. of fold change (2 NAMs vs T69): −0.2675
- Mean Diff. of fold change (2 NAMs vs T215Y_3_TAMs): 0.09297
- Mean Diff. of fold change (2 NAMs vs T215Y_3_TAMs_118): 0.1569
- Mean Diff. of fold change (2 NAMs vs T215Y_3_TAMs_208): 0.1573
- Mean Diff. of fold change (2 NAMs vs T215Y_3_TAMs_no118): 0.05035
- Mean Diff. of fold change (2 NAMs vs T215Y_3_TAMs_no208): 0.08272
- Mean Diff. of fold change (3 NAMs vs K65R): 0.03092
- Mean Diff. of fold change (3 NAMs vs K65R + M184V): 0.1438
- Mean Diff. of fold change (3 NAMs vs K70R_3_TAMs): −0.1534
- Mean Diff. of fold change (3 NAMs vs M184V): −0.124
- Mean Diff. of fold change (3 NAMs vs T69): −0.221
- Mean Diff. of fold change (3 NAMs vs T215Y_3_TAMs): 0.1395
- Mean Diff. of fold change (3 NAMs vs T215Y_3_TAMs_118): 0.2035
- Mean Diff. of fold change (3 NAMs vs T215Y_3_TAMs_208): 0.2038
- Mean Diff. of fold change (3 NAMs vs T215Y_3_TAMs_no118): 0.09689
- Mean Diff. of fold change (3 NAMs vs T215Y_3_TAMs_no208): 0.1293
- Mean Diff. of fold change (K65R + M184V vs K70R_3_TAMs): −0.2972
- Mean Diff. of fold change (K65R + M184V vs T215Y_3_TAMs): −0.004258
- Mean Diff. of fold change (K65R + M184V vs T215Y_3_TAMs_118): 0.05968
- Mean Diff. of fold change (K65R + M184V vs T215Y_3_TAMs_208): 0.06005
- Mean Diff. of fold change (K65R + M184V vs T215Y_3_TAMs_no118): −0.04688
- Mean Diff. of fold change (K65R + M184V vs T215Y_3_TAMs_no208): −0.01451
- Mean Diff. of fold change (K65R vs K65R + M184V): 0.1129
- Mean Diff. of fold change (K65R vs K70R_3_TAMs): −0.1843
- Mean Diff. of fold change (K65R vs M184V): −0.1549
- Mean Diff. of fold change (K65R vs T69): −0.2519
- Mean Diff. of fold change (K65R vs T215Y_3_TAMs): 0.1086
- Mean Diff. of fold change (K65R vs T215Y_3_TAMs_118): 0.1725
- Mean Diff. of fold change (K65R vs T215Y_3_TAMs_208): 0.1729
- Mean Diff. of fold change (K65R vs T215Y_3_TAMs_no118): 0.06597
- Mean Diff. of fold change (K65R vs T215Y_3_TAMs_no208): 0.09835
- Mean Diff. of fold change (K70R_3_TAMs vs T215Y_3_TAMs_118): 0.3569
- Mean Diff. of fold change (K70R_3_TAMs vs T215Y_3_TAMs_no118): 0.2503
- Mean Diff. of fold change (M184V vs K65R + M184V): 0.2677
- Mean Diff. of fold change (M184V vs K70R_3_TAMs): −0.02944
- Mean Diff. of fold change (M184V vs T69): −0.09699
- Mean Diff. of fold change (M184V vs T215Y_3_TAMs): 0.2635
- Mean Diff. of fold change (M184V vs T215Y_3_TAMs_118): 0.3274
- Mean Diff. of fold change (M184V vs T215Y_3_TAMs_208): 0.3278
- Mean Diff. of fold change (M184V vs T215Y_3_TAMs_no118): 0.2209
- Mean Diff. of fold change (M184V vs T215Y_3_TAMs_no208): 0.2532
- Mean Diff. of fold change (T69 vs K65R + M184V): 0.3647
- Mean Diff. of fold change (T69 vs K70R_3_TAMs): 0.06756
- Mean Diff. of fold change (T69 vs T215Y_3_TAMs): 0.3605
- Mean Diff. of fold change (T69 vs T215Y_3_TAMs_118): 0.4244
- Mean Diff. of fold change (T69 vs T215Y_3_TAMs_208): 0.4248
- Mean Diff. of fold change (T69 vs T215Y_3_TAMs_no118): 0.3179
- Mean Diff. of fold change (T69 vs T215Y_3_TAMs_no208): 0.3502
- Mean Diff. of fold change (T215Y_3_TAMs vs K70R_3_TAMs): −0.2929
- Mean Diff. of fold change (T215Y_3_TAMs vs T215Y_3_TAMs_118): 0.06394
- Mean Diff. of fold change (T215Y_3_TAMs vs T215Y_3_TAMs_208): 0.06431
- Mean Diff. of fold change (T215Y_3_TAMs vs T215Y_3_TAMs_no118): −0.04263
- Mean Diff. of fold change (T215Y_3_TAMs vs T215Y_3_TAMs_no208): −0.01025
- Mean Diff. of fold change (T215Y_3_TAMs_208 vs K70R_3_TAMs): −0.3572
- Mean Diff. of fold change (T215Y_3_TAMs_208 vs T215Y_3_TAMs_118): −0.0003693
- Mean Diff. of fold change (T215Y_3_TAMs_208 vs T215Y_3_TAMs_no118): −0.1069
- Mean Diff. of fold change (T215Y_3_TAMs_208 vs T215Y_3_TAMs_no208): −0.07456
- Mean Diff. of fold change (T215Y_3_TAMs_no118 vs T215Y_3_TAMs_118): 0.1066
- Mean Diff. of fold change (T215Y_3_TAMs_no208 vs K70R_3_TAMs): −0.2827
- Mean Diff. of fold change (T215Y_3_TAMs_no208 vs T215Y_3_TAMs_118): 0.07419
- Mean Diff. of fold change (T215Y_3_TAMs_no208 vs T215Y_3_TAMs_no118): −0.03237
- mean fold change (FC) compared to the WT population (all groups containing NAMs or the combination of TAMs shown in Table 1, p<0.0001, Student's T-test): significantly lower
- Mean Diff. of fold change (wt vs 1 NAM): 0.2652
- Mean Diff. of fold change (wt vs 2 NAMs): 0.4373
- Mean Diff. of fold change (wt vs 3 NAMs): 0.3908
- Mean Diff. of fold change (wt vs K65R): 0.4217
- Mean Diff. of fold change (wt vs K65R + M184V): 0.5346
- Mean Diff. of fold change (wt vs K70R_3_TAMs): 0.2374
- Mean Diff. of fold change (wt vs M184V): 0.2668
- Mean Diff. of fold change (wt vs T69): 0.1698
- Mean Diff. of fold change (wt vs T215Y_3_TAMs): 0.5303
- Mean Diff. of fold change (wt vs T215Y_3_TAMs_118): 0.5942
- Mean Diff. of fold change (wt vs T215Y_3_TAMs_208): 0.5946
- Mean Diff. of fold change (wt vs T215Y_3_TAMs_no118): 0.4877
- Mean Diff. of fold change (wt vs T215Y_3_TAMs_no208): 0.5201

Source: patent US10202658B2, “Methods for determining hypersusceptibility of HIV-1 to non-nucleoside reverse transcriptase inhibitors” (Monogram Biosciences, Inc., priority 2005, dated 2019)
